Measurements from patent EP4806894A1, “TNAP INHIBITORY COMPOUND AND USE THEREOF” (Rednvia Co., Ltd., priority 2023, dated 2025).
Counter-ions that a name gives are not always drawn.

Legend:
[1] = target: T1, TNAP (Homo sapiens, UniProt P05186); experiment: TNAP inhibitory activity, colorimetric assay (alkaline phosphatase assay kit ab83369, pNPP substrate); assay type: biochemical; conditions: TNAP enzyme, 2 hours at room temperature, absorbance 405 nm
T1 sequence (P05186 18-502 limits assumed): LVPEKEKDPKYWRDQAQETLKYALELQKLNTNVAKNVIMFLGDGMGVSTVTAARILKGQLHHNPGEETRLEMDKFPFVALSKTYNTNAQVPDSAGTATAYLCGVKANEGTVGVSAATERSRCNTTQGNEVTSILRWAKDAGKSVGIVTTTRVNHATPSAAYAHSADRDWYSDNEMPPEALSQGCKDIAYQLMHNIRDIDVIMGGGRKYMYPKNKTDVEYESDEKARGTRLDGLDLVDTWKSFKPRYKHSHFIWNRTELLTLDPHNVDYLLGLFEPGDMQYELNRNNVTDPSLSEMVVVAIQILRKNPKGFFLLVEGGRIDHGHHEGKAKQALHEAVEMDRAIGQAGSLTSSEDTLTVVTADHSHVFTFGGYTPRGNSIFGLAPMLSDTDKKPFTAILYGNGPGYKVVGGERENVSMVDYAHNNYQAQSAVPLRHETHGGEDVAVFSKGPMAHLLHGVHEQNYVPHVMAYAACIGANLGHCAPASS

[2] = tested on: saos-2 cells; experiment: Anticalcification efficacy in saos-2 cells (osteogenic medium, Alizarin Red staining); assay type: cell-based; conditions: Homo sapiens, 168 h, test compound 1 µM, 7 days osteogenic medium, Alizarin Red absorbance 540 nm, read-out: calcification inhibition
In short: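 Saos-2 cells at 80–90% confluence induced for 7 days in osteogenic medium (DMEM, 100 nM dexamethasone, 10 mM β-glycerophosphate, 0.05 mM ascorbic acid), compound (0.5, 1, 5, 10 […]) added with each medium change. Alizarin Red staining eluted with cetylpyridinium chloride, A540 read; inhibition taken against OM-only absorbance.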

Structure (SMILES) | IC50 [1] [nM] | inhibition at 1 µM [2] [%]
COc1ccc(Cl)cc1S(=O)(=O)Nc1cnc2c(c1)CN(C(=O)NCCF)CC2 [Example 117, 3-((5-chloro-2-methoxyphenyl)sulfonamido)-N-(2-fluoroethyl)-7,8-dihydro-1,6-naphthyridine-6(5H)-carboxamide] | 10 to 100 | ≥ 50
COc1ccc(OC)c(S(=O)(=O)Nc2cnc3c(c2)C(=O)NCCC3)c1 [Example 16, 2,5-dimethoxy-N-(5-oxo-6,7,8,9-tetrahydro-5H-pyrido[3,2-c]azepine-3-yl)benzenesulfonamide] | 100 to 1000 | ≥ 50
COc1ccc(Br)cc1S(=O)(=O)Nc1cnc2c(c1)CN(C(=O)OC(C)(C)C)CC2 [Example 88, tert-butyl 3-((5-bromo-2-methoxyphenyl)sulfonamido)-7,8-dihydro-1,6-naphthyridine-6(5H)-carboxylate] | 100 to 1000 | ≥ 50
COc1ccc(Br)cc1S(=O)(=O)Nc1cnc2c(c1)CN(C(=O)NCC(F)F)CC2 [Example 108, 3-((5-bromo-2-methoxyphenyl)sulfonamido)-N-(2,2-difluoroethyl)-7,8-dihydro-1,6-naphthyridine-6(5H)-carboxamide] | 10 to 100 | ≥ 50
O=C1NCCc2ncc(NS(=O)(=O)c3c(F)cc(F)cc3-c3ccc(C4(C(=O)O)CC4)cc3)cc21 [Example 37, 1-(3',5'-difluoro-2'-(N-(5-oxo-5,6,7,8-tetrahydro-1,6-naphthyridine-3-yl)sulfamoyl)-[1,1'-biphenyl]-4-yl)cyclopropane-1-carboxylic acid] | ≥ 1000 | < 0
O=C1NCCc2ncc(NS(=O)(=O)c3cc(F)ccc3Br)cc21 [Example 56, 2-bromo-5-fluoro-N-(5-oxo-5,6,7,8-tetrahydro-1,6-naphthyridine-3-yl)benzenesulfonamide] | 100 to 1000 | ≥ 50
COc1ccc(OC)c(S(=O)(=O)Nc2cnc3c(c2)CN(C(=O)OCC(C)(C)C)CC3)c1 [Example 100, neopentyl3-((5-methoxy-2-methoxyphenyl)sulfonamido)-7,8-dihydro-1,6-naphthyridine-6(5H)-carboxylate] | 100 to 1000 | ≥ 50
COc1ccc(Cl)cc1S(=O)(=O)Nc1cnc2c(c1)C(=O)NCCC2 [Example 13, 5-chloro-2-methoxy-N-(5-oxo-6,7,8,9-tetrahydro-5H-pyrido[3,2-c]azepine-3-yl)benzenesulfonamide] | 100 to 1000 | ≥ 50
O=C1NCc2ncc(NS(=O)(=O)c3cc(F)ccc3Br)cc21 [Example 11, 2-bromo-5-fluoro-N-(5-oxo-6,7-dihydro-5H-pyrrolo[3,4-b]pyridine-3-yl)benzenesulfonamide] | ≥ 1000 | ≥ 50
O=C(O)Cc1ccc(-c2ccc(F)cc2S(=O)(=O)Nc2cnc3c(c2)C(=O)NCC3)cc1 [Example 35, 2-(4'-fluoro-2'-(N-(5-oxo-5,6,7,8-tetrahydro-1,6-naphthyridine-3-yl)sulfamoyl)-[1,1'-biphenyl]-4-yl)acetic acid] | ≤ 10 | ≥ 50
COc1ccc(Br)cc1S(=O)(=O)Nc1cnc2c(c1)C(=O)NCC2 [Example 9, 5-bromo-2-methoxy-N-(5-oxo-5,6,7,8-tetrahydro-1,6-naphthyridine-3-yl)benzenesulfonamide] | ≤ 10 | ≥ 50
COc1ccc(Cl)cc1S(=O)(=O)Nc1cnc2c(c1)CN(c1ncccn1)CC2 [Example 114, 3-5-chloro-2-methoxy-N-(6-(pyrimidine-2-yl)-5,6,7,8-tetrahydro-1,6-naphthyridine-3-yl)benzenesulfonamide] | 10 to 100 | ≥ 50
COc1ccc(-c2ccc(CCC(=O)O)cc2)cc1S(=O)(=O)Nc1cnc2c(c1)C(=O)NCC2 [Example 50, 3-(4'-methoxy-3'-(N-(5-oxo-5,6,7,8-tetrahydro-1,6-naphthyridine-3-yl)sulfamoyl)-[1,1'-biphenyl]-4-yl)propanoic acid] | 10 to 100 | ≥ 50
COc1ccc(C2=CCOCC2)cc1S(=O)(=O)Nc1cnc2c(c1)C(=O)NCC2 [Example 51, 5-(3,6-dihydro-2H-pyran-4-yl)-2-methoxy-N-(5-oxo-5,6,7,8-tetrahydro-1,6-naphthyridine-3-yl)benzenesulfonamide] | 100 to 1000 | ≥ 50
COc1ccc(-c2cnn(C3COC3)c2)cc1S(=O)(=O)Nc1cnc2c(c1)C(=O)NCC2 [Example 79, 2-methoxy-5-(1-(oxetane-3-yl)-1H-pyrazole-4-yl)-N-(5-oxo-5,6,7,8-tetrahydro-1,6-naphthyridine-3-yl)benzenesulfonamide] | 100 to 1000 | ≥ 50
COc1ccc(-c2cnoc2)cc1S(=O)(=O)Nc1cnc2c(c1)C(=O)NCC2 [Example 83, 5-(isoxazole-4-yl)-2-methoxy-N-(5-oxo-5,6,7,8-tetrahydro-1,6-naphthyridine-3-yl)benzenesulfonamide] | 10 to 100 | ≥ 50
COc1ccc(Cl)cc1S(=O)(=O)Nc1cnc2c(c1)CNCC2 [Example 92, 5-chloro-2-methoxy-N-(5,6,7,8-tetrahydro-1,6-naphthyridine-3-yl)benzenesulfonamide hydrochloride] | 10 to 100 | ≥ 50
COc1ccc(-c2ccc(CC(=O)O)cc2)cc1S(=O)(=O)Nc1cnc2c(c1)C(=O)NCC2 [Example 33, 2-(4'-methoxy-3'-(N-(5-oxo-5,6,7,8-tetrahydro-1,6-naphthyridine-3-yl)sulfamoyl)-[1,1'-biphenyl]-4-yl)acetic acid] | 10 to 100 | ≥ 50
COc1ccc(-c2cnn(-c3ccccc3)c2)cc1S(=O)(=O)Nc1cnc2c(c1)C(=O)NCC2 [Example 124, 2-methoxy-N-(5-oxo-5,6,7,8-tetrahydro-1,6-naphthyridine-3-yl)-5-(1-phenyl-1H-pyrazole-4-yl)benzenesulfonamide] | 100 to 1000 | < 0
COc1ccc(F)cc1S(=O)(=O)Nc1cnc2c(c1)C(=O)NCC2 [Example 8, 5-fluoro-2-methoxy-N-(5-oxo-5,6,7,8-tetrahydro-1,6-naphthyridine-3-yl)benzenesulfonamide] | 10 to 100 | ≥ 50
COc1ccc(-c2cc(F)c(O)c(F)c2)cc1S(=O)(=O)Nc1cnc2c(c1)C(=O)NCC2 [Example 46, 3',5'-difluoro-4'-hydroxy-4-methoxy-N-(5-oxo-5,6,7,8-tetrahydro-1,6-naphthyridine-3-yl)-[1,1'-biphenyl]-3-sulfonamide] | 100 to 1000 | ≥ 50
COc1ccc(Cl)cc1S(=O)(=O)Nc1cnc2c(c1)CN(C(C)C)CC2 [Example 112, 5-chloro-N-(6-isopropyl-5,6,7,8-tetrahydro-1,6-naphthyridine-3-yl)-2-methoxybenzenesulfonamide] | 100 to 1000 | < 0
COc1ccc(-c2cnn(C3CCOCC3)c2)cc1S(=O)(=O)Nc1cnc2c(c1)C(=O)NCC2 [Example 76, 2-methoxy-N-(5-oxo-5,6,7,8-tetrahydro-1,6-naphthyridine-3-yl)-5-(1-(tetrahydro-2H-pyran-4-yl)-1H-pyrazole-4-yl)benzenesulfonamide] | 100 to 1000 | ≥ 50
COc1ccc(Cl)cc1S(=O)(=O)Nc1cnc2c(c1)CN(C(=O)N1CCOCC1)CC2 [Example 109, 5-chloro-2-methoxy-N-(6-(morpholine-4-carbonyl)-5,6,7,8-tetrahydro-1,6-naphthyridine-3-yl)benzenesulfonamide] | 10 to 100 | ≥ 50
COc1ccc(-c2c(C)nn(C)c2C)cc1S(=O)(=O)Nc1cnc2c(c1)C(=O)NCC2 [Example 121, 2-methoxy-N-(5-oxo-5,6,7,8-tetrahydro-1,6-naphthyridine-3-yl)-5-(1,3,5-trimethyl-1H-pyrazole-4-yl)benzenesulfonamide] | 100 to 1000 | < 0
COc1ccc(OC)c(S(=O)(=O)Nc2cnc3c(c2)CNCC3)c1 [Example 94, 2,5-dimethoxy-N-(5,6,7,8-tetrahydro-1,6-naphthyridine-3-yl)benzenesulfonamide hydrochloride] | 10 to 100 | ≥ 50
COc1ccc(-c2cnn(CC(=O)O)c2)cc1S(=O)(=O)Nc1cnc2c(c1)C(=O)NCC2 [Example 48, 2-(4-(4-methoxy-3-(N-(5-oxo-5,6,7,8-tetrahydro-1,6-naphthyridine-3-yl)sulfamoyl)phenyl)-1H-pyrazole-1-yl)acetic acid] | 10 to 100 | ≥ 50
COc1ccc(-c2cnn(-c3ccncc3)c2)cc1S(=O)(=O)Nc1cnc2c(c1)C(=O)NCC2 [Example 120, 2-methoxy-N-(5-oxo-5,6,7,8-tetrahydro-1,6-naphthyridine-3-yl)-5-(1-(pyridine-4-yl)-1H-pyrazole-4-yl)benzenesulfonamide] | 100 to 1000 | < 0
COc1ccc(-c2cnn(C3CC3)c2)cc1S(=O)(=O)Nc1cnc2c(c1)C(=O)NCC2 [Example 74, 5-(1-cyclopropyl-1H-pyrazole-4-yl)-2-methoxy-N-(5-oxo-5,6,7,8-tetrahydro-1,6-naphthyridine-3-yl)benzenesulfonamide] | 100 to 1000 | ≥ 50
